Series [1] deals with DNA strand breaks in L1210 cells. The series is described as follows: DNA strand break assay (alkaline elution). Type of series: cell-based, murine. The protocol: (§1) Again using cultures of the murine leukaemia L1210 cell line, growth inhibition experiments were carried out to assess the cytostatic effects of the compounds and clonogenic survival assays were performed to assess cytotoxicity, especially in relation to use of the compounds in conjunction with DNA damaging cytotoxic agents such as cytotoxic antitumour drugs or high energy radiation.
All the compounds were tested for their ability to produce strand breaks when used alone.

In series [2] the test system is L1210 cells. The experiment in a line: growth inhibition assay, alone or with temozolomide. The settings on record: Mus musculus, L1210, 48 h. The class given is cell-based, murine. The protocol:
as §1
At this time one set of replicates would be counted using a Coulter counter (N0), and 48 hours later the remaining samples would be counted (N1). The percentage (%) growth inhibition of drug-treated samples could then be estimated. In drug combination experiments, where evidence of synergistic effects on cell growth or clonogenicity was being sought, a single, fixed concentration of a cytotoxic drug sample, e.g. temozolomide, would be taken as the control value.

The next series can be described thus: in vitro. The settings on record: mouse, l1210 cells. The protocol:
as §1

The test system of series [3] is L1210 cells. The experiment in a line: clonogenic survival assay with temozolomide (TM). The settings on record: 16 hours, ± S.E. The protocol: as §1
After 7-10 days colonies were stained with 0.5 mg/ml MTT and counted by eye on a gridded light box. Survival curves were plotted and typical DEF10 values obtained are hereinafter given in Table II (DEF10 being defined as the ratio of the concentration of TM that reduces survival to 10% divided by the concentration of TM that reduces survival to 10% in the presence of a fixed concentration of PARP inhibitor). Each DEF10 value in Table II represents the average ratio±S.E. (standard error) derived from the averaged 10% survival for TM alone (675±31 μM from 22 independent survival curves) divided by individual 10% survival values from at least 3 independent survival curves performed in the presence of a fixed concentration of inhibitor.
For NU1025 maximal potentiation of cytotoxicity was obtained by a concentration in the range of 50-100 μM, and was significant at doses as low as 10 μM.

The next series concerns the target T1, PARP (Mus musculus, UniProt P11103).
T1 construct: endogenous in cells; host or cells: L1210 murine leukaemia cells, permeabilised by hypotonic buffer and cold shock
The series is described as follows: PARP inhibition assay ([32P]-NAD incorporation into TCA-precipitated poly(ADP-ribose) in permeabilised L1210 cells, oligonucleotide activated). The class given is biochemical, L1210 murine leukaemia cells. From the text:
In principle, the PARP assay used relies upon activating endogenous PARP (as hereinafter described) in cells containing exogenous [^32 P]-NAD^+ introduced therein by suspending the cells in a solution of [^32 P]-NAD^+ to which they have been rendered permeable in an initial pretreatment step. The poly(ADP-ribose) which is then synthesised by the enzyme can be precipitated by trichloracetic acid (TCA) and the amount of radio-labelled ^32 p incorporated therein measured, e.g. using a scintillation counter, to give a measure of the activity of the PARP under the particular conditions of the experiment. By repeating the experiment following the same procedure, and under the same conditions, in the presence of each compound to be tested the reduction in enzyme activity, representative of the inhibitory effect of the test compound, can then be ascertained from the reduction, if any, of the amount of [^32 P] measured in the TCA precipitated poly(ADP-ribose).
Thus, with a range of different compounds a set of comparative values for inhibitory activity can be obtained.
In practice, L1210 murine leukaemia cells were used as the source of the PARP enzyme after being rendered permeable to exogenous [^32 P]NAD by exposure to hypotonic buffer and cold shock. […] This oligonucleotide sequence snaps back on itself to form a double-stranded molecule with a single blunt end and provides an effective substrate for activation of PARP.
The experimental protocol adopted, in which a synthetic oligonucleotide as mentioned above is introduced as a specific activator of PARP, discriminates between PARP and other mono-ADP-ribosyltransferases in the cells.
The oligonucleotide having the palindromic sequence […], synthesised by conventional means, was vacuum dried and stored as pellets in a freezer. Before use, it was made up to 200 μg/ml in 10 mM Tris/HCl, pH 7.8, with each pellet being dissolved completely in […] of buffer. The solution was then heated to 60° C. in a water bath for 15 minutes, and allowed to cool slowly to ensure correct reannealing. After adding 9.5 ml of buffer, the concentration was checked by measuring the optical density of a diluted sample at 260 nm. The main solution was then diluted to a concentration of 200 μg/ml and stored in 500 μl aliquots in a freezer, ready for use.
The L1210 cells used as the source of the PARP enzyme were maintained as a suspension culture in RPMI medium+10% foetal bovine serum+glutamine and antibiotics (penicillin and streptomycin). HEPES and sodium bicarbonate were also added, and the cells were seeded in 100 ml of medium such that there would be a concentration of approximately 8×10^5 /ml at the time of carrying out an assay.
The solubility of the compound was then checked by adding a quantity of the DMSO solution to a quantity of the isotonic buffer, in the required final proportions that were to be used in carrying out the assay, and after an interval the solution was examined under a microscope for any signs of crystals forming.
A desired quantity of the cells, ascertained by counting with a haemocytometer, was then centrifuged (1500 rpm in a "Europa" model 24M centrifuge for 5 minutes), the supernatant removed, and the pellets obtained were resuspended in 20 ml Dul A at 4° C. before centrifuging again at 1500 rpm and 4° C. After again removing the supernatant, the cells were resuspended at a concentration of 3×10^7 cells/ml in ice cold hypotonic buffer and left for 30 minutes on ice. Nine volumes were then added of ice cold isotonic buffer, and the cells, now rendered permeable to exogenous NAD^+, were then used within the next hour for carrying out an assay.

Series [4] can be described thus: solubility check of test compound in assay buffer (DMSO solution added to isotonic buffer, microscope). The class given is physicochemical. The text has this:
The compounds being tested were generally made up as a concentrated solution in DMSO (Dimethyl sulphoxide). The solubility of the compound was then checked by adding a quantity of the DMSO solution to a quantity of the isotonic buffer, in the required final proportions that were to be used in carrying out the assay, and after an interval the solution was examined under a microscope for any signs of crystals forming.

Series [5] deals with L1210 cells. The experiment in a line: clonogenic survival assay, gamma ray irradiation. The class given is cell-based, murine. The settings on record: 200 μM. The protocol: In other clonogenic survival assays gamma ray irradiation was used to damage the cells. Typically, L1210 cells (3 ml, 4×10^3 /ml in plastic bijoux bottles) were irradiated at 4° C. with varying doses of gamma rays in the presence or absence of 10 mM 3AB or 200 μM NU1057 and a final concentration of 2% DMSO. The cells were then incubated at 37° C. for 2 hours in the continued presence or absence of PARP inhibitor prior to seeding for colony formation.

Where [6] appears, read: 10 μM, read-out: % Inhibition (PARP).
Setting [7] is: 30 μM, read-out: % Inhibition (PARP).

Like-named read-outs stand apart in the source and are kept apart here.

T1 sequence (P11103 whole entry): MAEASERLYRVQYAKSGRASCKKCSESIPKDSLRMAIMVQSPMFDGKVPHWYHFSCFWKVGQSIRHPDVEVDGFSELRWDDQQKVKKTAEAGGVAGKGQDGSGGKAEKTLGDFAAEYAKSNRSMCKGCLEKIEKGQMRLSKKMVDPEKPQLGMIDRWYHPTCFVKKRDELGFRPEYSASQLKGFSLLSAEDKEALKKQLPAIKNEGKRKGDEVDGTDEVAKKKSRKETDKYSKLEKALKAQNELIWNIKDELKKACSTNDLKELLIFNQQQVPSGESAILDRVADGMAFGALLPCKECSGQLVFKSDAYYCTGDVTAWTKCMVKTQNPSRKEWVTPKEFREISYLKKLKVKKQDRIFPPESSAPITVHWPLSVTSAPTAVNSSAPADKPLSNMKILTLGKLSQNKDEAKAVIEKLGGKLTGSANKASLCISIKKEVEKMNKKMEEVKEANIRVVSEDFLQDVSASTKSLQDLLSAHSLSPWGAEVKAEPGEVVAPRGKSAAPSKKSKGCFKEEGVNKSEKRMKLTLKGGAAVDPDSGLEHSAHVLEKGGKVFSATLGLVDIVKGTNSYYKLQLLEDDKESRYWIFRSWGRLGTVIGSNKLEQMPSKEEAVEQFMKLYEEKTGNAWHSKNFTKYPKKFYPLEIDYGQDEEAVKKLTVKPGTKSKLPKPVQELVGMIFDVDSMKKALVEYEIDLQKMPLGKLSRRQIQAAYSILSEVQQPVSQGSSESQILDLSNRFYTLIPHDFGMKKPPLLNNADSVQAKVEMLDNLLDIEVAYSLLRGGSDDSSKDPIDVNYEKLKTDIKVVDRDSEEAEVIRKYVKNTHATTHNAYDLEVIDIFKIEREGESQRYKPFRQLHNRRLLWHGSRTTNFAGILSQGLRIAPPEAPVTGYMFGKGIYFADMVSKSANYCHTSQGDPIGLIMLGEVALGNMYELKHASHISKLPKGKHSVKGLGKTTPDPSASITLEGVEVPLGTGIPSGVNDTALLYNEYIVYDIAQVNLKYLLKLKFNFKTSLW

For the compound `NC(=O)c1ccccc1` [BENZAMIDE, benzamide], the “concentration above which strand breakage with TM increases significantly” value in series [1] (150 μM TM, 1 hour) is on record as “above 3 mM”. In series [1] (20 mM, 24 hour incubation), the “effect on DNA strand break levels, compound alone” value was “no significant effect on DNA strand break levels”. For the same compound, the IC50 in the series on L1210 cells [2] (read-out: IC50 INHIBITOR + 100 μM TM (growth inhibition)) is 840 ± 120 µM; in the series with L1210 cells [2] (read-out: IC50 INHIBITOR ALONE (growth inhibition)) it was 2500 ± 300 µM. Also, half-maximal cytotoxicity in “in vitro” (CC50 at 24 h) was put at 6000 ± 1500 µM. Also, the “DEF10 (TM)” value stood at 4.0 ± 0.7 in the series with L1210 cells [3] (1 mM inhibitor) and 6.9 ± 0.2 in the series on L1210 cells [3] (3 mM inhibitor).
Turning to `COc1ccc(COc2cccc(C(N)=O)c2)cc1` [NU1006, 3-(4-methoxybenzyloxy)benzamide], the inhibition at 10 µM on PARP (setting [6]) is 58%. Besides, on PARP (setting [7]), the inhibition at 30 µM was determined as 74%. The “insolubility at assay concentration” value in series [4] (100 μM) is “insol”.
As for `NC(=O)c1cccc(OCc2ccc([N+](=O)[O-])cc2)c1` [NU1007, 3-(4-nitrobenzyloxy)benzamide], the inhibition at 10 µM on PARP (setting [6]) stood at 26%. For the same compound, the “insolubility at assay concentration” value in series [4] (30 μM) and in series [4] (100 μM) was “insol” in each case.
In the case of `NC(=O)c1cccc(OCC2CCCCC2)c1` [NU1008, 3-(cyclohexylmethyloxy)benzamide], the “PARP inhibitory activity in words” value at PARP is given as “some PARP inhibitory activity”. Moreover, the “insolubility at assay concentration” value in series [4] (10 μM), in series [4] (30 μM) and in series [4] (100 μM) was “insol” throughout.
In the case of `NC(=O)c1cccc(OCc2ccc(Br)cc2)c1` [NU1014, 3-(4-Bromobenzyloxy)benzamide], the inhibition at 10 µM at PARP (setting [6]) was 23%. Also, the inhibition at 30 µM on PARP (setting [7]) worked out at 36%. The “insolubility at assay concentration” value in series [4] (100 μM) is reported as “insol”.
Take `NC(=O)c1cccc(OCc2ccc(F)cc2)c1` [NU1015, 3-(4-Fluorobenzyloxy)benzamide]: the inhibition at 10 µM at PARP (read-out: % Inhibition (PARP), 10 μM) stood at 20%. The inhibition at 30 µM on PARP (read-out: % Inhibition (PARP), 30 μM) is 52%. Besides, the “insolubility at assay concentration” value in series [4] (100 μM) was “insol”.
For `NC(=O)c1cccc(OCc2cccc([N+](=O)[O-])c2)c1` [NU1017, 3-(3-Nitrobenzyloxy)benzamide], on PARP (setting [6]), the inhibition at 10 µM came out at 21%. Besides, the inhibition at 30 µM on PARP (setting [7]) was determined as 40%. The “insolubility at assay concentration” value in series [4] (100 μM) is listed as “insol”.
For the compound `NC(=O)c1cccc(OCCCCCCCCn2cnc3c(Cl)ncnc32)c1` [NU1027, 3-[8-(6-chloropurin-9-yl)octyloxy]benzamide], at PARP (setting [6]), the inhibition at 10 µM turned out to be 30%. Also, the “insolubility at assay concentration” value in series [4] (30 μM) and in series [4] (100 μM) was “insol” in each case.
Consider `N#Cc1ccc(COc2cccc(C(N)=O)c2)cc1` [NU1037, 3-(4-cyanobenzyloxy)benzamide], for which the inhibition at 10 µM on PARP (setting [6]) turned out to be 33%. Besides, the “insolubility at assay concentration” value in series [4] (30 μM) and in series [4] (100 μM) was “insol” in each case.
`COC(=O)c1ccc(COc2cccc(C(N)=O)c2)cc1` [NU1041, 3-(4-carboxymethylbenzyloxy)benzamide]: the “insolubility at assay concentration” value in series [4] (10 μM), in series [4] (30 μM) and in series [4] (100 μM) was “insol” throughout.
On to `NC(=O)c1cccc(OCc2ccccc2[N+](=O)[O-])c1` [NU1042, 3-(2-Nitrobenzyloxy)benzamide], for which the “insolubility at assay concentration” value in series [4] (10 μM), in series [4] (30 μM) and in series [4] (100 μM) was “insol” in each case.
Regarding `CCCCCCOc1cccc(C(N)=O)c1` [NU1043, 3-hexyloxybenzamide], the inhibition at 10 µM at PARP (setting [6]) was 15%. For the same compound, at PARP (setting [7]), the inhibition at 30 µM came to 39%. Besides, the “insolubility at assay concentration” value in series [4] (100 μM) is “insol”.
As for `CCCCCCCOc1cccc(C(N)=O)c1` [NU1044, 3-heptyloxybenzamide], the inhibition at 10 µM at PARP (setting [6]) came to 26%. The “insolubility at assay concentration” value in series [4] (30 μM) and in series [4] (100 μM) was “insol” each time.
With `CCCCCCCCOc1cccc(C(N)=O)c1` [NU1045, 3-octyloxybenzamide], the “insolubility at assay concentration” value in series [4] (10 μM), in series [4] (30 μM) and in series [4] (100 μM) was “insol” in each case.
For `NC(=O)c1cccc(OC/C=C/c2ccccc2)c1` [NU1050, 3-(Cinnamyloxy)benzamide], the inhibition at 10 µM on PARP (setting [6]) amounted to 23%. Also, the “insolubility at assay concentration” value in series [4] (30 μM) and in series [4] (100 μM) was “insol” throughout.
As to `O=c1[nH]c(-c2ccc([N+](=O)[O-])cc2)nc2c(O)cccc12` [NU1057, 8-Hydroxy-2-(4-nitrophenyl)quinazolin-4-one], at PARP, the IC50 is 0.23 µM and the “PARP inhibitory activity in words” value is recorded as “potent PARP inhibitors”. In addition, the inhibition at 10 µM at PARP (setting [6]) turned out to be 92%. Also, the “potentiation of gamma ray cytotoxicity in words” value in the series with L1210 cells [5] is listed as “significant potentiation of gamma ray cytotoxicity”. The “DEF10 (gamma ray cytotoxicity)” value in the series with L1210 cells [5] (2% DMSO, 2 hours at 37° C.) was 1.1.

The values are drawn from patent US5756510A, “Benzamide analogs useful as PARP (ADP-ribosyltransferase, ADPRT) DNA repair enzyme inhibitors” (Newcastle University Ventures Limited, priority 1994, dated 1998).
